≈ marks a conversion by molar mass, not a printed value.
Tests used:
[1] = system: receptor-mediated Ca^2+ entry in endothelial cells; settings: cited from earlier work
[2] = system: food intake in rats; test: Food intake in fasted rats after single intragastric gavage; format: in vivo; settings: for Food Intake: 5 mg/kg in saline, mean ± sem
Description: Adult, male rats were fasted for 16 hours then administered with a single intragastric gavage of 1-[beta-[3-(4-Methoxyphenyl)propoxy]-4-methoxyphenethyl]-1H-imidazole.HCl at a dose of 5 mg/kg in saline in a volume of 0.5 ml, or saline alone (0.5 ml). There were 8 animals in each group. Food intake was measured at various timepoints over the following 24 hours.

[3] = system: receptor-mediated Ca^2+ entry in neutrophils; settings: cited from earlier work
[4] = cited from earlier work
[5] = system: receptor-mediated Ca^2+ entry in stimulated platelets; settings: cited from earlier work
[6] = system: TRPV channels; settings: cited from earlier work

SMILES: COc1ccc(CCCOC(Cn2ccnc2)c2ccc(OC)cc2)cc1 (stereo not drawn) [1-[β-[3-(4-methoxyphenyl)propoxy]-4-methoxyphenethyl]-1H-imidazole]
- inhibition of receptor-mediated Ca^2+ entry [1]: selective inhibitor
- food intake, trend vs saline ([2]; 5 mg/kg gavage, after 3 h, 5 h, 6 h, 8 h, 9 h, 10 h and 24 h, p<0.10): strong trends for reduced food intake
- Food Intake ([2]; 0.5 h after single intragastric gavage, rats fasted 16 h): 2.4 ± 0.3 g
- Food Intake ([2]; 1 h after single intragastric gavage, rats fasted 16 h): 2.8 ± 0.3 g
- Food Intake ([2]; 2 h after single intragastric gavage, rats fasted 16 h): 2.9 ± 0.3 g
- Food Intake ([2]; 3 h after single intragastric gavage, rats fasted 16 h): 3.8 ± 0.4 g
- Food Intake ([2]; 4 h after single intragastric gavage, rats fasted 16 h): 4.9 ± 0.5 g
- Food Intake ([2]; 5 h after single intragastric gavage, rats fasted 16 h): 5.1 ± 0.5 g
- Food Intake ([2]; 6 h after single intragastric gavage, rats fasted 16 h): 6.3 ± 0.5 g
- Food Intake ([2]; 7 h after single intragastric gavage, rats fasted 16 h): 7.4 ± 0.6 g
- Food Intake ([2]; 8 h after single intragastric gavage, rats fasted 16 h): 8.2 ± 0.6 g
- Food Intake ([2]; 9 h after single intragastric gavage, rats fasted 16 h): 9.3 ± 0.6 g
- Food Intake ([2]; 10 h after single intragastric gavage, rats fasted 16 h): 10.3 ± 0.6 g
- Food Intake ([2]; 11 h after single intragastric gavage, rats fasted 16 h): 11.5 ± 0.6 g
- Food Intake ([2]; 12 h after single intragastric gavage, rats fasted 16 h): 12.4 ± 0.6 g
- Food Intake ([2]; 24 h after single intragastric gavage, rats fasted 16 h): 18.4 ± 0.8 g
- food intake over the period of the study ([2]; rats fasted 16 h, 5 mg/kg single intragastric gavage in saline vs saline alone, 24 h): reduced food intake over the period of the study
- inhibition of receptor-mediated Ca^2+ entry [3]: selective inhibitor
- Solubility in water [4]: 30 mg/mL (≈ 81.9 mM)
- IC50 [5]: 8 to 12 µM

SMILES: N.N.N.N.N.N.N.N.N.N.N.N.N.N.[Cl-].[Cl-].[Cl-].[Cl-].[Cl-].[Cl-].[O-2].[O-2].[Ru+3].[Ru+3].[Ru+4] [Ruthenium Red]
- block of TRPV channels [6]: blocks all TRPV channels

— patent US20080146502A1, “Methods for modulating the sensation of satiety perception and agents useful for same” (Autogen Research Pty Ltd., priority 2004, published 2008)
